Laboratory results: patent US20240270821A1, “GIP/GLP1/GCG TRI-RECEPTOR AGONISTS AND USES THEREOF” (priority 2023, published 2024)
Read-outs that look alike come from different tables or passages of the source. Starred links: 1 amine or outer side, 2 acyl side, 3 side chain; linkers in the order of their positions; H or OH if unused. Non-standard residues stand in square brackets, D forms with d. Residues, ends and D or L forms follow the SMILES beside them. Groups on a side chain read outwards from the residue. No end group written: not given here. *: point of attachment. C20 diacid = O=C(O)CCCCCCCCCCCCCCCCCCC(=O)*; C18 diacid = O=C(O)CCCCCCCCCCCCCCCCC(=O)*; αMePhe(2-F) = C[C@](N)(Cc1ccccc1F)C(=O)O; γGlu = O=C(O)[C@H](CCC(=O)[*:2])N[*:1]; αMe4Pal = C[C@](N)(Cc1ccncc1)C(=O)O; αMeY = C[C@](N)(Cc1ccc(O)cc1)C(=O)O; 4Pal = N[C@@H](Cc1ccncc1)C(=O)O; αMeL = CC(C)C[C@](C)(N)C(=O)O; αMeS = C[C@](N)(CO)C(=O)O; Orn = NCCC[C@H](N)C(=O)O; AEEA = NCCOCCOCC(=O)O; Aib = CC(C)(N)C(=O)O

Tests used:
Assay type in all cases: cell-based
hGLP-1R [1] = target: T1, hGLP-1R (Homo sapiens, UniProt P43220); assay: Functional cAMP activation in the presence of 0.1% casein (no HSA);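 also: intracellular cAMP rise after 30 min at 37 °C read by HTRF, normalized between buffer only (0%) and maximal control ligand (100%), four-parameter variable-slope fit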
T1 sequence (P43220 24-463): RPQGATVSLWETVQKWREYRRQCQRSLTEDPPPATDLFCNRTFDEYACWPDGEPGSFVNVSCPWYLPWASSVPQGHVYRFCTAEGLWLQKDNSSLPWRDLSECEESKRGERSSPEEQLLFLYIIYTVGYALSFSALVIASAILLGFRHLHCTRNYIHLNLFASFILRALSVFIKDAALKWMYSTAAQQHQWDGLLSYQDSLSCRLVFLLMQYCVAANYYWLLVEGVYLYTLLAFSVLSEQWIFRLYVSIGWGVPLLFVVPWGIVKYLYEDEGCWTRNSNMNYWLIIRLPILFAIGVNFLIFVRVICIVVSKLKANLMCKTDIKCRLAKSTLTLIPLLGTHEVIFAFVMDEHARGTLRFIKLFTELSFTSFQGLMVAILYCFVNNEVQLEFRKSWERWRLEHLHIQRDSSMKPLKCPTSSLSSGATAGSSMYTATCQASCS

hGIPR [2] = target: T2, hGIPR (Homo sapiens, UniProt P48546); assay: as above;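 also: intracellular cAMP rise after 30 min at 37 °C read by HTRF against a standard curve, scaled between buffer alone (0%) and top control ligand concentration (100%), four-parameter fit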
T2 sequence (P48546 22-466): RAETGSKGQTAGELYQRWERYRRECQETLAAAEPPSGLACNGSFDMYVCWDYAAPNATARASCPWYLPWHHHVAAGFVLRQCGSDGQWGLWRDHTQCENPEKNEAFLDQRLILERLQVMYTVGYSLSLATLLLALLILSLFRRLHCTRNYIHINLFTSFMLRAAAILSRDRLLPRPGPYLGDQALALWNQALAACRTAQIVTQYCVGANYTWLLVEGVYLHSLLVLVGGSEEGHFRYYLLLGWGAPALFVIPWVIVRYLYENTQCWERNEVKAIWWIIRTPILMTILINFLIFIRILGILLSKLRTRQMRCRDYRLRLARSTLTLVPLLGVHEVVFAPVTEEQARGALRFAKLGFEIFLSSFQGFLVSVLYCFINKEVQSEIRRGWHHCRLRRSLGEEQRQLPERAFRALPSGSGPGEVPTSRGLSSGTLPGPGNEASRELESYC

hGLP-1R [3] = target: T1, hGLP-1R; assay: Functional cAMP activity in the presence of 1% HSA
human GcgR = human GcgR (Homo sapiens, UniProt P47871); assay: Functional cAMP activity in the presence of 1% HSA
human GcgR, sequence (P47871 26-477): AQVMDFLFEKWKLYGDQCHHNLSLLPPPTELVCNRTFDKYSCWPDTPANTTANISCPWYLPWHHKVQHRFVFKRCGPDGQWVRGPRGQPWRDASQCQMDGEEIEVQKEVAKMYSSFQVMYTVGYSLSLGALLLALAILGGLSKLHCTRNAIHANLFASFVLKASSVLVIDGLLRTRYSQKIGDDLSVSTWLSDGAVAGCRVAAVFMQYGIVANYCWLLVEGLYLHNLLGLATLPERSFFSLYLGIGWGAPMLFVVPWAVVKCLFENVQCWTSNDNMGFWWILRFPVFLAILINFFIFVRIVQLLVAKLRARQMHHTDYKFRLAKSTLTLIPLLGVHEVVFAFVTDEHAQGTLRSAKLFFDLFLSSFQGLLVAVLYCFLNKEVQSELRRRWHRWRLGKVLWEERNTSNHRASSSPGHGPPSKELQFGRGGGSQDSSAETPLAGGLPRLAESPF

hGIPR [4] = target: T2, hGIPR; assay: Functional cAMP activity in the presence of 1% HSA
hGcgR = hGcgR (Homo sapiens, UniProt P47871); assay: Functional cAMP activation in the presence of 0.1% casein (no HSA);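 also: intracellular cAMP rise after 30 min at 37 °C, read by HTRF against a cAMP standard curve, scaled from buffer only (0%) to maximal control ligand response (100%)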
hGcgR, sequence (P47871 26-477): as above

[5] = in the presence of 0.1% casein (no HSA), geometric mean, read-out: Relative cAMP EC50, hGLP-1R
[6] = in the presence of 0.1% casein (no HSA), geometric mean, read-out: Relative cAMP EC50, hGIPR
[7] = read-out: cAMP Rel EC50, hGLP-1R
[8] = in the presence of 0.1% casein (no HSA), geometric mean, read-out: Relative cAMP EC50, hGcgR
[9] = read-out: Relative cAMP EC50, hGLP-1R
[10] = read-out: Relative cAMP EC50, hGIPR
[11] = read-out: Relative cAMP EC50, hGcgR
[12] = 0.1% casein, no HSA, geometric mean, read-out: Relative cAMP EC50, hGLP-1R
[13] = 0.1% casein, no HSA, geometric mean, read-out: Relative cAMP EC50, hGIPR
[14] = 0.1% casein, no HSA, geometric mean, read-out: Relative cAMP EC50, hGcgR

Molecule | EC50 (hGLP-1R [1]; [5]) [nM] | EC50 (hGIPR [2]; [6]) [nM] | EC50 (hGLP-1R [3]; [7]) [nM] | EC50 (human GcgR; read-out: cAMP Rel EC50, hGcgR) [nM] | EC50 (hGIPR [4]; read-out: cAMP Rel EC50, hGIPR) [nM] | EC50 (hGcgR; [8]) [nM] | further results
H-Y[Aib]QGTFTSD[4Pal]S[Orn][αMeL]LDKK([γGlu-γGlu-C18 diacid])AQ[αMe4Pal]AFIE[αMe4Pal]LIEGGPSSGAPPPSGSEE-NH2 [Example 958] | 9.51 | 0.343 | 850 | 340 | 27.1 | 3.17 | –
H-Y[Aib]QGT[αMePhe(2-F)]TSDYSKLLDKIAQK([AEEA-γGlu-C18 diacid])AFIEYLIEGGPSSGEPPPSEG-NH2 [Example 330] | 0.63 | 0.0783 | 91.8 | 398 | 7.33 | 3.91 | –
H-Y[Aib]QGTFTSD[4Pal]SK[αMeL]LDKK([AEEA-γGlu-C18 diacid])AQ[Aib]AFIEYLIE[Aib]GPSSGAPPPSGSE-NH2 [Example 901] | 1.26 | 0.17 | 193 | 1150 | 34 | 9.09 | –
H-Y[Aib]QGTFTSDFS[Orn][αMeL]LDKK([γGlu-AEEA-γGlu-C18 diacid])AQ[Aib]AFIEYLLE[Aib]GPSSGAPPPSG[4Pal]-NH2 [Example 277] | 5.56 | 0.0672 | 639 | 1690 | 13.3 | 10.6 | –
Y[Aib]QGTFTSDFS[Orn][αMeL]LDKK([AEEA-γGlu-γGlu-C18 diacid])AQ[Aib]AFIEYLLAGGPSSGEPPPSGS-NH2 [Example 153] | 7.09 | 0.218 | 488 | 1210 | 16.8 | 14.7 | –
H-Y[Aib]QGTFTSDFS[Orn][αMeL]LDKK([AEEA-γGlu-C20 diacid])AQ[Aib]AFIEYLLAGGPSSGAPPPSGS[AEEA]-NH2 [Example 83] | 2.85 | 0.185 | 653 | 1270 | 91.8 | 10.2 | –
H-Y[Aib]QGTFTSD[4Pal]S[Orn][αMeL]LDKK([AEEA-γGlu-C18 diacid])AQ[Aib]AFIEYLLE[dA]GPSSGAPPPSG[4Pal]-NH2 [Example 274] | 4.9 | 0.296 | 560 | 1120 | 27.6 | 9.37 | –
H-Y[Aib]QGTFTSD[4Pal]SQ[αMeL]LDKK([AEEA-γGlu-C18 diacid])AQ[αMe4Pal]AFIE[αMeY]LIEGGPSSGAPPPSGS-NH2 [Example 844] | 0.61 | 0.27 | 151 | 583 | 43.3 | 2.83 | –
H-Y[Aib]QGT[αMePhe(2-F)]TSD[4Pal]SILLDKK([AEEA-γGlu-C18 diacid])AQ[Aib]AFIE[αMeY]LEEGGPSSGAPPPSGTGE-NH2 [Example 669] | – | – | 27.3 | 173 | 1.41 | – | EC50 (hGLP-1R [1]; [9]): 0.27 nM; EC50 (hGIPR [2]; [10]): 0.0145 nM; EC50 (hGcgR; [11]): 1.76 nM
H-Y[Aib]QGT[αMePhe(2-F)]TSDYSKLLDKIAQK([AEEA-γGlu-C20 diacid])[Orn]FIEWLIEGGPSSGEPPPSEG-NH2 [Example 310] | 0.586 | 0.0939 | 177 | 4000 | 15 | 3.52 | –
H-Y[Aib]QGTFTSD[4Pal]S[Orn][αMeL]LDKK([AEEA-γGlu-C18 diacid])AQ[αMe4Pal]AFIE[αMe4Pal]LIEGGPSSGAPPPSGSEE-NH2 [Example 955] | 7.74 | 0.386 | 1380 | 366 | 42.3 | 2.65 | –
H-Y[Aib]QGTFTSDYSI[αMeL]LDKQAAK([AEEA-AEEA-γGlu-C20 diacid])QFIEWLIEGGPSSGEPPPGAE-NH2 [Example 319] | – | – | – | – | – | – | EC50 (hGLP-1R [1]): 0.947 nM; EC50 (hGIPR [2]): 0.485 nM; EC50 (hGLP-1R [3]): 119 nM; EC50 (human GcgR): 1650 nM; EC50 (hGIPR [4]): 60.1 nM; EC50 (hGcgR): 4.81 nM
Y[Aib]QGTFTSD[4Pal]SQ[αMeL]LDKK([dE-γGlu-C18 diacid])AQ[αMe4Pal]AFIEYLIE[Aib]GPSSGAPPPSGSEE-NH2 [Example 928] | 3.58 | 0.0883 | 604 | 1090 | 15.1 | 6.85 | –
H-Y[Aib]QGT[αMePhe(2-F)]TSD[4Pal][αMeS]I[αMeL]LD[Orn]QAQ[αMe4Pal]EFI[dE][αMeY]LIEGGPSSGAPPPSGS-NH2 [Example 1232] | – | – | 0.694 | 8.53 | 0.00687 | – | EC50 (hGLP-1R [1]; [12]): 0.723 nM; EC50 (hGIPR [2]; [13]): 0.00893 nM; EC50 (hGcgR; [14]): 6.69 nM
H-Y[Aib]QGTFTSDYSK[αMeL]LDKK([AEEA-γGlu-C20 diacid])AQQAFIQWLIEGGPSSGEPPPSEG-NH2 [Example 314] | 0.274 | 0.345 | 100 | 1030 | 65.9 | 3.7 | –
H-Y[Aib]QGT[αMePhe(2-F)]TSD[4Pal][αMeS]I[αMeL]LD[Orn]K([γGlu-γGlu-C18 diacid])AQ[Aib][Orn]FI[dE]YLIEGGPSSGEPPPSGTEE-NH2 [Example 535] | – | – | 29.9 | 238 | 1.16 | – | EC50 (hGLP-1R [1]; [9]): 0.418 nM; EC50 (hGIPR [2]; [10]): 0.0183 nM; EC50 (hGcgR; [11]): 3.16 nM
H-Y[Aib]QGTFTSD[4Pal]SQ[αMeL]LDKK([Glu-γGlu-C18 diacid])AQ[αMe4Pal]AFIEYLIAGGPSSGAPPPSGSEE-NH2 [Example 1030] | 1.72 | 0.122 | 385 | 1830 | 21 | 9.42 | –
CC[C@H](C)[C@H](NC(=O)[C@H](Cc1ccccc1)NC(=O)[C@H](C)NC(=O)C(C)(C)NC(=O)[C@H](CCC(N)=O)NC(=O)[C@H](C)NC(=O)[C@H](CCCCNC(=O)CC[C@H](NC(=O)CC[C@H](NC(=O)CCCCCCCCCCCCCCCCC(=O)O)C(=O)O)C(=O)O)NC(=O)[C@H](CCCCN)NC(=O)[C@H](CC(=O)O)NC(=O)[C@H](CC(C)C)NC(=O)[C@H](CC(C)C)NC(=O)[C@@H](NC(=O)[C@H](CO)NC(=O)[C@H](Cc1ccc(O)cc1)NC(=O)[C@H](CC(=O)O)NC(=O)[C@H](CO)NC(=O)[C@@H](NC(=O)[C@](C)(Cc1ccccc1F)NC(=O)[C@@H](NC(=O)CNC(=O)[C@H](CCC(N)=O)NC(=O)C(C)(C)NC(=O)[C@@H](N)Cc1c[nH]cn1)[C@@H](C)O)[C@@H](C)O)[C@@H](C)CC)C(=O)N[C@@H](CCC(=O)O)C(=O)N[C@@H](Cc1ccc(O)cc1)C(=O)N[C@@H](CC(C)C)C(=O)N[C@@H](CCC(=O)O)C(=O)N[C@@H](CCC(=O)O)C(=O)NCC(=O)NCC(=O)N1CCC[C@H]1C(=O)N[C@@H](CO)C(=O)N[C@@H](CO)C(=O)NCC(=O)N[C@@H](C)C(=O)N1CCC[C@H]1C(=O)N1CCC[C@H]1C(=O)N1CCC[C@H]1C(=O)N[C@@H](CO)C(N)=O [Example 426] (H-H[Aib]QGT[αMePhe(2-F)]TSDYSILLDKK([γGlu-γGlu-C18 diacid])AQ[Aib]AFIEYLEEGGPSSGAPPPS-NH2) | – | – | 16.6 | 740 | 29.8 | – | EC50 (hGLP-1R [1]; [9]): 0.139 nM; EC50 (hGIPR [2]; [10]): 0.079 nM; EC50 (hGcgR; [11]): 4.33 nM
H-Y[Aib]QGTFTSD[4Pal][αMeS]Q[αMeL]LD[Orn]K([dE-γGlu-C18 diacid])AQ[αMe4Pal]QFIQ[αMeY]LIE[Aib]GPSSGAPPPSGGGE-NH2 [Example 1186] | 0.594 | 0.0404 | 52.1 | 164 | 3.17 | 1.46 | –
H-Y[Aib]QGT[αMePhe(2-F)]TSD[4Pal]SI[αMeL]LDKK([γGlu-γGlu-C18 diacid])AQ[Aib]AFIEYLEEGGPSSGAPPPSGTGE-NH2 [Example 622] | – | – | 52.3 | 641 | 1.19 | – | EC50 (hGLP-1R [1]; [9]): 0.776 nM; EC50 (hGIPR [2]; [10]): 0.0148 nM; EC50 (hGcgR; [11]): 7.7 nM
H-Y[Aib]QGTFTSD[4Pal]SQ[αMeL]LDKK([γGlu-γGlu-C18 diacid])AQ[αMe4Pal]AFIEYLIE[Aib]GPSSGAPPPSGSE-NH2 [Example 890] | 3.19 | 0.113 | 290 | 559 | 14.2 | 4.73 | –
H-Y[Aib]QGT[αMePhe(2-F)]TSD[4Pal][αMeS]I[αMeL]LD[Orn]K([AEEA-γGlu-C18 diacid])AQ[αMe4Pal]EFI[dE][αMeY]LIEGGPPS[Aib]EPPPSGGGE-NH2 [Example 1201] | – | – | 93.9 | 234 | 1.02 | – | EC50 (hGLP-1R [1]; [12]): 0.888 nM; EC50 (hGIPR [2]; [13]): 0.00959 nM; EC50 (hGcgR; [14]): 1.76 nM
H-Y[Aib]QGTFTSDFS[Orn][αMeL]LDKK([AEEA-γGlu-C20 diacid])AQ[Aib]AFIEYLLAGGPSSGAPPPSEG-NH2 [Example 60] | 1.93 | 0.135 | 409 | 1210 | 33 | 8.96 | –
